Legend:
Human recombinant MMP-2 = molecular target: T1, Human recombinant MMP-2 (Homo sapiens, UniProt P08253); experiment: In vitro MMP inhibition, IC50 determination (fluorogenic substrate I); assay type: biochemical; settings: value outside parentheses
T1 construct: made in house; host or cells: MMP-2-transfected p2AHT2 cells
T1 sequence (P08253 110-660): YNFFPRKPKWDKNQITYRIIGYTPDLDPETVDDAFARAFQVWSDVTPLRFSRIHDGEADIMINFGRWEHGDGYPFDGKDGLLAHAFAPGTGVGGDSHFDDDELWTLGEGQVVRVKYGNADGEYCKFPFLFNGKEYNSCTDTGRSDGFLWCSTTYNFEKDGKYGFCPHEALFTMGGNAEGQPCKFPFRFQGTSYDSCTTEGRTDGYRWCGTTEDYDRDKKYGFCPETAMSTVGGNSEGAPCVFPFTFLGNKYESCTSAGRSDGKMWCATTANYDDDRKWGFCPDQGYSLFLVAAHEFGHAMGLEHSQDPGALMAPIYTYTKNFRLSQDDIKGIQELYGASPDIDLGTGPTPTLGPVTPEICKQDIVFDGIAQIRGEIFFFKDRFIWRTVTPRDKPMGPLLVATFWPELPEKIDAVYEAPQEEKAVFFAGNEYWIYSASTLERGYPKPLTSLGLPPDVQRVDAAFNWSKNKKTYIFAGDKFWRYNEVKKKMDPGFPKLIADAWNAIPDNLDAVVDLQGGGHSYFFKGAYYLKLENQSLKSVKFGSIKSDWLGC
Outline: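 IC50 was derived from the concentration-dependent fall in fluorescence (ex 328, em 415 nm) on Gly-Leu cleavage of 4 μM MCA/Dpa-quenched substrate I. Assays ran at room temperature in pH 7.5 Tris/NaCl/CaCl2/Brij buffer with MMP-2 activated by trypsin or APMA; inhibitors were diluted from 1% DMSO stocks.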

Human recombinant MMP-9 = molecular target: T2, Human recombinant MMP-9 (Homo sapiens, UniProt P14780); experiment: as above; assay type: biochemical; settings: value outside parentheses
T2 construct: made in house; host or cells: MMP-9-transfected HT1080 cells (spent media)
Outline: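 Reduction in fluorescence (328 nm excitation, 415 nm emission) from cleavage of 4 μM quenched peptide substrate I, measured at room temperature against inhibitor concentration, gave IC50. Enzyme: trypsin- or APMA-activated MMP-9 purified from transfected HT1080 medium; buffer 100 mM Tris, 100 mM NaCl, 10 mM CaCl2, pH 7.5.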

Human recombinant MMP-14 = molecular target: T3, Human recombinant MMP-14 (Homo sapiens, UniProt P50281); experiment: as above; assay type: biochemical; settings: value outside parentheses
T3 construct: The catalytic domain enzyme was expressed in E. coli inclusion bodies, solubilized in urea; made in house
Outline: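 IC50 came from reduced fluorescence (ex 328 nm, em 415 nm) as inhibitor concentration rose, with 4 μM substrate I cleaved at Gly-Leu. Room-temperature incubation in pH 7.5 Tris buffer with 10 mM CaCl2; the E. coli-expressed, refolded MMP-14 catalytic domain was activated with trypsin or APMA.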

Human recombinant MMP-13 = molecular target: T4, Human recombinant MMP-13 (Homo sapiens, UniProt P45452); experiment: as above; assay type: biochemical; settings: value outside parentheses
T4 construct: made in house; host or cells: baculovirus / insect cells
Outline: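 Fluorescence at 415 nm (excitation 328 nm) reports Gly-Leu cleavage of 4 μM quenched methoxycoumarin peptide substrate I. Human recombinant MMP-13, activated by trypsin or APMA, was incubated at room temperature with varied inhibitor concentrations in pH 7.5 Tris/NaCl/CaCl2 buffer; IC50 derived from reduced fluorescence.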

Human recombinant MMP-1 = molecular target: T5, Human recombinant MMP-1 (Homo sapiens, UniProt P03956); experiment: as above; assay type: biochemical; settings: value outside parentheses
T5 construct: made in house; host or cells: MMP-1-transfected HT-1080 cells (spent media)
T5 sequence (P03956 100-469): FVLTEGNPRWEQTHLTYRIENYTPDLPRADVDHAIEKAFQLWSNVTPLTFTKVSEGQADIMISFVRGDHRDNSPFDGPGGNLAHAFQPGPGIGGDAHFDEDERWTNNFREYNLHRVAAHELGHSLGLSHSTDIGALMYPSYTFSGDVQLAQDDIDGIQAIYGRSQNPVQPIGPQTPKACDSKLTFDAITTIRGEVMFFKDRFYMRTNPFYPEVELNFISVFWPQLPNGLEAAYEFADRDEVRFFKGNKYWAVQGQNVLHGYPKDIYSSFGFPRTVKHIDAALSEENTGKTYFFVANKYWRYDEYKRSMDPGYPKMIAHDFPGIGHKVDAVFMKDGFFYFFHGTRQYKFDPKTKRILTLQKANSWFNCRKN
Outline: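 Inhibitor dilutions were made in 100 mM Tris-HCl/100 mM NaCl/10 mM CaCl2 buffer, pH 7.5, and incubated at room temperature with activated proenzyme (from transfected HT-1080 media; APMA or trypsin) and 4 μM quenched methoxycoumarin peptide substrate. Loss of 415 nm fluorescence (328 nm excitation) against concentration gave IC50.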

[1] = system: solid tumor cancers (colorectal, pancreatic, ovarian, and prostate); settings: cited from earlier work

T2 sequence (P14780 107-707 limits assumed): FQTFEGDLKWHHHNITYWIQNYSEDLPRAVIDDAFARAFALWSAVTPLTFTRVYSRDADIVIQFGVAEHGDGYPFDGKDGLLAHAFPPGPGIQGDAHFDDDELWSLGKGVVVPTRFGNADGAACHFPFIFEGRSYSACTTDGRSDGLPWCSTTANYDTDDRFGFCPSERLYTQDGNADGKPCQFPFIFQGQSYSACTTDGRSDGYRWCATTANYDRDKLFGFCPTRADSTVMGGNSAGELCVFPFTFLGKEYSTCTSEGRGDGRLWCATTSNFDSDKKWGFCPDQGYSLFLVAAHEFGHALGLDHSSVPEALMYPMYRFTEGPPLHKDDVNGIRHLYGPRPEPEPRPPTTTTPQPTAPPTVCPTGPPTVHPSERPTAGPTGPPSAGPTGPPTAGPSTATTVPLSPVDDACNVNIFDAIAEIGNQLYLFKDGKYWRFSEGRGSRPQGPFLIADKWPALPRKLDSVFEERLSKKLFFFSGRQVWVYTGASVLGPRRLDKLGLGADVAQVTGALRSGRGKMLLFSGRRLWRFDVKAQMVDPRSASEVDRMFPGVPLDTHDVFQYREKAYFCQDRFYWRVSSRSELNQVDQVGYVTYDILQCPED

Compound | IC50 (Human recombinant MMP-2) [nM] | IC50 (Human recombinant MMP-9) [nM] | IC50 (Human recombinant MMP-14) [nM] | IC50 (Human recombinant MMP-13) [nM] | IC50 (Human recombinant MMP-1) [µM] | most common drug-related toxicity ([1]; clinical trials, patients) | effect on cancer-specific antigens used as surrogate markers for biological activity ([1]; patients with advanced, rapidly progressive, treatment-refractory solid tumor cancers)
O=C(Cc1ccsc1)NCCOc1ccc(S(=O)(=O)C2(C(=O)NO)CCOCC2)cc1 [Example 601] | 1.9 | 42.6 | 2060 | 1.3 | 4.92 | – | –
O=C(NO)C1(S(=O)(=O)c2ccc(OCCCc3cc(-c4ccc(F)cc4)cs3)cc2)CCOCC1 [Example 607] | 45.2 | 2300 | > 10000 | 0.1 | > 10 | – | –
O=C(NO)C1(S(=O)(=O)c2ccc(OCCCc3cccc(C4CCCCN4)c3)cc2)CCN(C2CC2)CC1 (centres unmarked) [Example 609] | 580 | 6890 | > 10000 | 7.7 | > 10 | – | –
O=C(NO)C1(S(=O)(=O)c2ccc(OCCCSc3nc4ccccc4s3)cc2)CCN(CC2CC2)CC1 [Example 614] | 1.8 | 8.5 | 9440 | 0.7 | > 10 | – | –
COCCN1CCC(C(=O)NO)(S(=O)(=O)c2ccc(OCCCSc3nc4ccccc4s3)cc2)CC1 [Example 615] | 1.1 | 3.6 | 6700 | 0.4 | > 10 | – | –
COc1ccc(CC(=O)NCCOc2ccc(S(=O)(=O)C3(C(=O)NO)CCOCC3)cc2)cc1 [Example 616] | 5.3 | 54.8 | 1970 | 2 | 1.58 | – | –
O=C(NO)C1(S(=O)(=O)c2ccc(OCCCS(=O)(=O)NC34CC5CC(CC(C5)C3)C4)cc2)CCOCC1 [Example 645] | 22.9 | 1730 | > 10000 | 4.3 | 9.28 | – | –
NCc1ccc(OCCOc2ccc(S(=O)(=O)C3(C(=O)NO)CCOCC3)cc2)cc1 [Example 650] | 1.1 | 2.46 | 2390 | 2.45 | 2.88 | – | –
COC(=O)c1ccc(OCCOc2ccc(S(=O)(=O)C3(C(=O)NO)CCOCC3)cc2)cc1 [Example 651] | 18.7 | 129 | 651 | 1.13 | > 10 | – | –
O=C(CCCOc1ccc(S(=O)(=O)C2(C(=O)NO)CCOCC2)cc1)N1CC[C@@H](c2ccccc2)[C@@H](O)C1 [Example 652] | 76.6 | 224 | > 10000 | 0.95 | 3.67 | – | –
O=C(NO)C1(S(=O)(=O)c2ccc(OCCOCc3ccccc3)cc2)CCOCC1 [Example 653] | 24.9 | 49.1 | 2510 | 5.58 | 3.92 | – | –
CN(C(=O)CCCOc1ccc(S(=O)(=O)C2(C(=O)NO)CCOCC2)cc1)c1ccccc1 [Example 654] | 160 | 970 | > 10000 | 0.55 | > 10 | – | –
O=C(NO)C1(S(=O)(=O)c2ccc(OCCOCC3CC3)cc2)CCOCC1 [Example 655] | 24.1 | 69.9 | > 10000 | 28.4 | > 10 | – | –
O=C(NO)C1(S(=O)(=O)c2ccc(OCCCn3nnc(-c4ccc(OC(F)(F)F)cc4)n3)cc2)CCOCC1 [Example 656] | 408 | 1180 | > 10000 | 0.66 | > 10 | – | –
O=C(NO)C1(S(=O)(=O)c2ccc(OCCCn3nnc(-c4ccc(C(F)(F)F)cc4)n3)cc2)CCN(CC(F)(F)F)CC1 [Example 657] | 316 | 380 | 3460 | 6030 | > 10 | – | –
CC(=O)c1cccc(OCCOc2ccc(S(=O)(=O)C3(C(=O)NO)CCOCC3)cc2)c1 [Example 658] | 156 | 891 | > 10000 | 3.27 | > 10 | – | –
O=C(NO)C1(S(=O)(=O)c2ccc(OCCOCc3cccc(OC(F)(F)F)c3)cc2)CCOCC1 [Example 660] | 18.7 | 83.1 | 3490 | 1.41 | 7.35 | – | –
O=C(NO)C1(S(=O)(=O)c2ccc(OCCOCC3CCCCO3)cc2)CCOCC1 (centres unmarked) [Example 661] | 78.2 | 616 | > 10000 | 61 | > 10 | – | –
O=C(NO)C1(S(=O)(=O)c2ccc(OCCOCc3cccc([N+](=O)[O-])c3)cc2)CCOCC1 [Example 662] | 7.13 | 44.3 | 1670 | 0.9 | 2.31 | – | –
O=C(NO)C1(S(=O)(=O)c2ccc(OCCOCc3cccc(F)c3)cc2)CCOCC1 [Example 663] | 25.2 | 49.9 | 3320 | 3.61 | > 10 | – | –
O=C(NO)C1(S(=O)(=O)c2ccc(OCC3Cc4cc(Oc5ccccc5)ccc4O3)cc2)CCOCC1 (centres unmarked) [Example 664] | 19.8 | 430 | 2650 | 1.02 | > 10 | – | –
O=C(NO)C1(S(=O)(=O)c2ccc(OCCOc3ccc4c(c3)OCO4)cc2)CCOCC1 [Example 665] | 11.6 | 44.3 | 2130 | 2.39 | > 10 | – | –
CN(C)C(=O)c1cccc(OCCOc2ccc(S(=O)(=O)C3(C(=O)NO)CCOCC3)cc2)c1 [Example 666] | 1.52 | 4450 | > 10000 | 17.2 | > 10 | – | –
O=C(NO)C1(S(=O)(=O)c2ccc(OCCOc3ccccc3)cc2)CCOCC1 [Example 667] | 27.3 | 34.2 | 2510 | 9.42 | > 10 | – | –
COC(=O)c1cccc(OCCOc2ccc(S(=O)(=O)C3(C(=O)NO)CCOCC3)cc2)c1 [Example 668] | 101 | 288 | 2110 | 1.53 | 7.66 | – | –
O=C(NO)C1(S(=O)(=O)c2ccc(OCCOc3cccc(F)c3)cc2)CCOCC1 [Example 669] | 19.3 | 39.1 | 2670 | 7.24 | > 10 | – | –
CC(=O)Nc1cccc(OCCOc2ccc(S(=O)(=O)C3(C(=O)NO)CCOCC3)cc2)c1 [Example 670] | 163 | 183 | 2370 | 14 | > 10 | – | –
CNC(=O)[C@@H](NC(=O)[C@H](CC(C)C)[C@H](O)C(=O)NO)C(C)(C)C [Marimastat] | – | – | – | – | – | musculoskeletal pain and stiffness | dose-related reduction in the rise of cancer-specific antigens

From US20040024024A1, “Aromatic sulfone hydroxamates and their use as protease inhibitors” (priority 2001, published 2004)
